# Measured values published in ChEMBL document CHEMBL1201862, “PubChem BioAssay data set” (2004).
# Activity calls are given as the source filed them. Cut-off read from the data, not from the text of the source, for most assays here: actives have a measured IC50 and inactives only a lower limit.
# Tests used:
# [1] = molecular target: T1, Sentrin-specific protease 8 (Homo sapiens, UniProt Q96LD8); format: functional;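 note: luminescence read-out of SENP8 inhibition, dose-response confirmation following an ultra-high-throughput screen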
# T1 sequence (Q96LD8 whole entry): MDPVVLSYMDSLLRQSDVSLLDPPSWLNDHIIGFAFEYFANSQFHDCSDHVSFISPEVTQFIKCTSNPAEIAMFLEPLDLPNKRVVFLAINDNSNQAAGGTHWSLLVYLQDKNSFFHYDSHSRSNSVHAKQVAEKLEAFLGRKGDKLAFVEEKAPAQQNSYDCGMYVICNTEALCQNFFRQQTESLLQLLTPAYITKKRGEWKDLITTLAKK
# [2] = molecular target: T2, Caspase-3 (Homo sapiens, UniProt P42574); format: functional;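 note: Dose-response selectivity test against caspase-3 for candidate inhibitors of sentrin-specific proteases (SENPs)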
# T2 sequence (P42574 whole entry): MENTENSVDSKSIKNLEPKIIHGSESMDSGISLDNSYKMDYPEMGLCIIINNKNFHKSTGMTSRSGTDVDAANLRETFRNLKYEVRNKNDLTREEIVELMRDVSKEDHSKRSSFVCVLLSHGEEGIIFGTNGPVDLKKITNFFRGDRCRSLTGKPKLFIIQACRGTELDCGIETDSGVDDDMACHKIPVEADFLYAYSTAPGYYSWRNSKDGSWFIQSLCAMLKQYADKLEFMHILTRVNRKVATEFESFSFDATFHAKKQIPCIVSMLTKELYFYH
# [3] = molecular target: T3, Sentrin-specific protease 7 (Homo sapiens, UniProt Q9BQF6); format: functional;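 note: Luminescence-based dose-response confirmation of ultra-high-throughput screening hits, measuring inhibition of SENP7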
# T3 sequence (Q9BQF6 whole entry): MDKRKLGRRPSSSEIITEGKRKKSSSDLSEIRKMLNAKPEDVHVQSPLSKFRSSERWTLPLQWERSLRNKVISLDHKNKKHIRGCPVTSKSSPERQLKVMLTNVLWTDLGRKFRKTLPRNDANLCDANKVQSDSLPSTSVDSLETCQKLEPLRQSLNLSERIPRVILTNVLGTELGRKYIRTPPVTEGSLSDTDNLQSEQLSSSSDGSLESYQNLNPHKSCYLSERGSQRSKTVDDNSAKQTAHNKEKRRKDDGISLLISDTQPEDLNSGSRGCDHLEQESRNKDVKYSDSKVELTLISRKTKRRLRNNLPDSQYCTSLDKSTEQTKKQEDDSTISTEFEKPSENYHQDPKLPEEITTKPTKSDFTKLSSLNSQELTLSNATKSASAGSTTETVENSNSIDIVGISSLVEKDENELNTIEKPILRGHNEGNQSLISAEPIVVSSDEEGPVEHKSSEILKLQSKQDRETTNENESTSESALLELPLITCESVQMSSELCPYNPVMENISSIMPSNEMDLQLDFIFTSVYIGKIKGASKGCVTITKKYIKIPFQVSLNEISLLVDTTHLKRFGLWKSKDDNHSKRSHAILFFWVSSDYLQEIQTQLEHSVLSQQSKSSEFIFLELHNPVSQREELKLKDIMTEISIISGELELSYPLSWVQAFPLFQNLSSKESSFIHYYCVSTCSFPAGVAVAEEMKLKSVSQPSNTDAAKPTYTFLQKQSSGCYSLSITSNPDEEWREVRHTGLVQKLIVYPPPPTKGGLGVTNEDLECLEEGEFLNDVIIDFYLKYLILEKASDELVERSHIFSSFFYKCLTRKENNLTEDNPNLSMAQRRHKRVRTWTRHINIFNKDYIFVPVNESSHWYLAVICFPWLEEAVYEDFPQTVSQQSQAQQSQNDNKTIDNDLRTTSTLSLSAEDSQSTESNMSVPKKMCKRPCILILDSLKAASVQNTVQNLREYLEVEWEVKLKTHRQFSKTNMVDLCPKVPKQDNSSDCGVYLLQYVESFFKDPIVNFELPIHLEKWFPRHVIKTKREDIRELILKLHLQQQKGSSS
# [4] = molecular target: T4, Sentrin-specific protease 6 (Homo sapiens, UniProt Q9GZR1); format: functional;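 note: Luminescence-based dose-response confirmatory assay of SENP6 inhibition, following up an ultra-high-throughput screen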
# T4 sequence (Q9GZR1 whole entry): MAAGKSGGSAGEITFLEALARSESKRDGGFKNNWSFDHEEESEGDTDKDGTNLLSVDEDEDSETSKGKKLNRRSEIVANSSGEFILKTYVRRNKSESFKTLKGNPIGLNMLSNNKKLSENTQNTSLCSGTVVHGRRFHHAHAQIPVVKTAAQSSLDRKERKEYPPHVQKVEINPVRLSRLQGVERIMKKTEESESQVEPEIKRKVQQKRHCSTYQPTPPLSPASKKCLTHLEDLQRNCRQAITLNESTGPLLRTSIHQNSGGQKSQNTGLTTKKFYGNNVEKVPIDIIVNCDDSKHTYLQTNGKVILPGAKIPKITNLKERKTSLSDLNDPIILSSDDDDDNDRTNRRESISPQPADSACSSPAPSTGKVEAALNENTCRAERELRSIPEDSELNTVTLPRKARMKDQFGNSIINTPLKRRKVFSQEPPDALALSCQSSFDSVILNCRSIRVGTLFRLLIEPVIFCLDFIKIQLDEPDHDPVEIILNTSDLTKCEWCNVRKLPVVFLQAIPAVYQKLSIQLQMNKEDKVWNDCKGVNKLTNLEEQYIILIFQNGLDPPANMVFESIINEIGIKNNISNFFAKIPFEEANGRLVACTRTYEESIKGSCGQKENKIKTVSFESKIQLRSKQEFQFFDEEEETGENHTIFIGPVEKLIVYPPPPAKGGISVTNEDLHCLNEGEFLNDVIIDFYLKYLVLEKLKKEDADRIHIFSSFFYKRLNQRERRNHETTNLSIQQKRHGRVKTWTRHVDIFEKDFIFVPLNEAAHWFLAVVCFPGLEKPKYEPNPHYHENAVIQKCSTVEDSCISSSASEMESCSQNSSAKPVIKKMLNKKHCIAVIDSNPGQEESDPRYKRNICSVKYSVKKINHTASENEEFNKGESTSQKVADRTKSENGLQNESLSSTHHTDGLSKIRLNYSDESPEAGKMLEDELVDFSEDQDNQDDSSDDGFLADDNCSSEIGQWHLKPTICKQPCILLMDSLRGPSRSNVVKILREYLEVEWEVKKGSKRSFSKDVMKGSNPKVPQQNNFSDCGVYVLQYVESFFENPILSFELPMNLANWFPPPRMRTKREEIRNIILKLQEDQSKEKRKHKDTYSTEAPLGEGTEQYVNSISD
# [5] = molecular target: T5, DNA repair and recombination protein RAD54-like (Homo sapiens, UniProt Q92698); test: RAD54 Holliday junction migration blockers – biochemical, fluorescence, cherry-picked samples, dose series, confirmation (AID 651657); format: functional
# T5 sequence (Q92698 whole entry): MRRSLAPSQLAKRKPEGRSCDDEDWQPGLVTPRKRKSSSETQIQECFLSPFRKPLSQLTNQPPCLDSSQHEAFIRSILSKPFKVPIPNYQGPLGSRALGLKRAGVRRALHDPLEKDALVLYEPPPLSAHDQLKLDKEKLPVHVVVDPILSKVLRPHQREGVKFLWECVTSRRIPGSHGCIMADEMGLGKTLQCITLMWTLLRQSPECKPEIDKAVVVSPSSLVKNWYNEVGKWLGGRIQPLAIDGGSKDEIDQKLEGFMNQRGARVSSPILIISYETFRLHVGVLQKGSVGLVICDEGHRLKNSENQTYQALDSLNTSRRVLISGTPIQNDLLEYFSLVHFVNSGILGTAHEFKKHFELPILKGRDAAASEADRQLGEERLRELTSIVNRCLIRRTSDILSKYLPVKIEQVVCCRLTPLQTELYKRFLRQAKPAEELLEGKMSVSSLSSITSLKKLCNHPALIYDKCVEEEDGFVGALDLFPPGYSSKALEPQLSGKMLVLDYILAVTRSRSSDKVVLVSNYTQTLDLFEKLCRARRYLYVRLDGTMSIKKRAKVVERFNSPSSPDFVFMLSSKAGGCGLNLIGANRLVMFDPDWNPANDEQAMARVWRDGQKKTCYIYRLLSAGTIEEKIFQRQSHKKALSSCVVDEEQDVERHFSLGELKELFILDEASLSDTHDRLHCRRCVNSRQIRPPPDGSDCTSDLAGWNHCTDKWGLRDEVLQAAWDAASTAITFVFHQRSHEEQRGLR
# [6] = molecular target: T6, Protein skinhead-1 (Caenorhabditis elegans, UniProt P34707); format: functional
# T6 sequence (P34707 whole entry): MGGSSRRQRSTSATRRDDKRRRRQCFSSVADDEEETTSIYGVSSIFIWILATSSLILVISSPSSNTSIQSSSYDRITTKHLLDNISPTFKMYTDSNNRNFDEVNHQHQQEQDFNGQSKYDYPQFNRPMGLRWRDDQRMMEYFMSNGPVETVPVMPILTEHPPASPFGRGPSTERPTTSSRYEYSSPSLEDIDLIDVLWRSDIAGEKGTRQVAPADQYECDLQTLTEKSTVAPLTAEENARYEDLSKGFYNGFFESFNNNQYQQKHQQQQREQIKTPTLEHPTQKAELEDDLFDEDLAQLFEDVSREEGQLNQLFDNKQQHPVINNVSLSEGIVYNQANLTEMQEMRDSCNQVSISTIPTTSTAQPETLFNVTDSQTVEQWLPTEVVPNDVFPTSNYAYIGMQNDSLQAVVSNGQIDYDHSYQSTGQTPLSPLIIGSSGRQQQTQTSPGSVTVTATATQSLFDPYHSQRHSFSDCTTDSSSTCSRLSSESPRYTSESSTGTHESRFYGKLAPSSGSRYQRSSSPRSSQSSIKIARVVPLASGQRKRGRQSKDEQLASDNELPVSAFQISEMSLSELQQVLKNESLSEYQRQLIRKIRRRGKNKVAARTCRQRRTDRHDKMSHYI
# [7] = molecular target: T7, Mannose-6-phosphate isomerase (Homo sapiens, UniProt P34949); test: MPI inhibition at elevated mannose 6-phosphate – biochemical, fluorescence intensity, high mannose 6-phosphate, primary screen (AID 1220)
# T7 sequence (P34949 whole entry): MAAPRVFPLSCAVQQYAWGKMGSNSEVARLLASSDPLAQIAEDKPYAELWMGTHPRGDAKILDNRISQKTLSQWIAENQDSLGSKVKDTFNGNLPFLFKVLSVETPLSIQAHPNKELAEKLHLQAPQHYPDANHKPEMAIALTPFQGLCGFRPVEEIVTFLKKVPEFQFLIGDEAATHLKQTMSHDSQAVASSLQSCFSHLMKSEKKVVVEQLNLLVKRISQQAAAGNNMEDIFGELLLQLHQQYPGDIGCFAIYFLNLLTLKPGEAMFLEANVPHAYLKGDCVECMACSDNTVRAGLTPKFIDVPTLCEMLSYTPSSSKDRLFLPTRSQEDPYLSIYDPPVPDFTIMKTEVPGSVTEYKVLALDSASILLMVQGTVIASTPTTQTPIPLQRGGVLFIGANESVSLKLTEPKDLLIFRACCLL
Structure (SMILES),IC50 [1],IC50 [2],IC50 [3],IC50 [4],AC50 [5],other results
O=C(Cc1ccccc1F)Nc1ccc(SC(F)F)cc1,> 100 µM (inactive),41.8 µM (active),13.7 µM (active),> 100 µM (inactive),–,–
Cc1nnc2c(N3CCN(CCO)CC3)nc3ccccc3n12,–,–,–,–,57.7 µM (active),–
O=C(/C=C/c1cccs1)c1ccc(N2CCOCC2)cc1,5.04 µM (active),6.94 µM (active),2.77 µM (active),5.47 µM (active),–,IC50 [6]: > 100 µM (inactive)
CCN(CC)CCNC(=O)c1cc2cc3ccc(OC)cc3nc2o1,–,–,–,–,40.7 µM (active),–
CN1CCN(CCCNC(=O)c2cc3c(=O)oc4ccccc4c3s2)CC1,–,–,–,–,38.1 µM (active),–
O=C(Nc1ccc(NC(=O)c2cccs2)c(Cl)c1)c1cccs1,27.6 µM (active),17.4 µM (active),6.62 µM (active),24.3 µM (active),–,–
O/C(=C\c1nc2ccccc2[nH]1)c1cccs1,13.1 µM (active),9.98 µM (active),7.98 µM (active),8.18 µM (active),–,–
CCCNc1nc2nc3ccccn3c(=O)c2cc1C(=O)NCCN1CCOCC1,–,–,–,–,32.4 µM (active),–
O=c1c2ccccc2oc2cc(NCCCN3CCOCC3)ccc12,–,–,–,–,23.3 µM (active),–
Cc1c(CN2CCCCC2)c(O)n(CCO)c(=O)c1C#N,–,–,–,–,–,IC50 [7]: > 50 µM (not active)
COc1ccc(N2C(=O)CC(Sc3nc[nH]n3)C2=O)c(OC)c1 (stereo not drawn),–,–,–,–,–,IC50 [7]: > 50 µM (not active)
CC(=O)c1sc(N/N=C\c2ccccc2O)nc1C,16.3 µM (active),11 µM (active),3.4 µM (active),10.3 µM (active),–,–
